Data as given in US20220000919A1, “PLACENTAL DERIVED NATURAL KILLER CELLS FOR TREATMENT OF CORONAVIRUS INFECTIONS” (Celularity Inc., priority 2020, published 2022).

Tests used:
CD34+ cells = test: NK culture of CD34+ cells with CRL compounds: cell expansion and NK differentiation; type: cell-based, human; conditions: for supported NK (PNK-007) expansion and differentiation: compound at 10 μM during the first 14 days of culture; for CD56+/CD11a+ subpopulation compared to SRI / expansion, differentiation and cytotoxicity profiles compared to SRI: PNK-007 culture, 10 μM; for cell expansion compared to SRI positive control at Day 35: compound and SRI at 10 μM; for CD34 cell expansion at Day 14 of the culture: compound at 10 μM
Procedure: Stage 1 medium: 90% Stem Cell Growth Medium (SCGM) (CellGro®), 10% Human Serum-AB, supplemented with 25 ng/mL or 250 ng/mL recombinant human thrombopoietin (TPO), 25 ng/mL recombinant human Flt3L, 27 ng/mL recombinant human stem cell factor (SCF), 25 ng/mL recombinant human IL-7, 0.05 ng/mL or 0.025 ng/mL recombinant human IL-6, 0.25 ng/mL or 0.125 ng/mL recombinant human granulocyte colony-stimulating factor (G-CSF), 0.01 ng/mL or 0.025 ng/mL recombinant human granulocyte-macrophage colony-stimulating factor (GM-CSF), 0.10% gentamicin, and 1 to 10 μm StemRegenin-1 (SR-1) or other stem cell mobilizing agent.
Stage 2 medium: 90% SCGM, 10% Human Serum-AB, supplemented with 25 ng/mL recombinant human Flt3L, 27 ng/mL recombinant human SCF, 25 ng/mL recombinant human IL-7, 20 ng/mL recombinant human IL-15, 0.05 ng/mL or 0.025 ng/mL recombinant human IL-6, 0.25 ng/mL or 0.125 ng/mL recombinant human granulocyte colony-stimulating factor (G-CSF), 0.01 ng/mL or 0.025 ng/mL recombinant human granulocyte-macrophage colony-stimulating factor (GM-CSF), 0.10% gentamicin, and 1 to 10 μm SRI or other stem cell mobilizing agent.
Stage 3 medium: 90% STEMMACS™, 10% Human Serum-AB, 0.025 mM 2-mercaptoethanol (55 mM), supplemented with 22 ng/mL recombinant human SCF, 1000 U/mL recombinant human IL-2, 20 ng/mL recombinant human IL-7, 20 ng/mL recombinant human IL-15, 0.05 ng/mL or 0.025 ng/mL recombinant human IL-6, 0.25 ng/mL or 0.125 ng/mL recombinant human granulocyte colony-stimulating factor (G-CSF), 0.01 ng/mL or 0.025 ng/mL recombinant human granulocyte-macrophage colony-stimulating factor (GM-CSF), and 0.10% gentamicin.
Cells are seeded at Day 0 at 3×10^4 cells/mL in Stage 1 media, and cells are tested for purity by a CD34+ and CD45+ count and viability by 7AAD staining. At Day 5 cells are counted and seeded to a concentration of 1×10^5 cells/mL with Stage 1 medium. At Day 7 cells are counted and seeded to a concentration of 1×10^5 cells/mL with Stage 1 medium.
At Day 10, cells are counted and seeded to a concentration of 1×10^5 cells/mL in Stage 2 medium. At Day 12, cells are counted and seeded to a concentration of 3×10^5 cells/mL in Stage 2 medium. At Day 14, cells are counted and seeded in Stage 3 medium. Cells are maintained in Stage 3 media until day 35.
UCB CD34+ cells were cultivated in presence of cytokines including thrombopoietin, SCF, Flt3 ligand, IL-7, IL-15 and IL-2 for 35 days to produce three-stage NK cells, as described in Example 1. Multi-color flow cytometry was used to determine the phenotypic characteristics of three-stage NK cells.
(§1) For biological testing, the compounds were provided to culture to evaluate their effects on NK cell expansion and differentiation. Specifically, donors of CD34+ cells (StemCell Technology) were thawed and expanded in vitro following NK culture protocol. During the first 14 days of the culture, each CRL compounds was dissolved in DMSO and added to the culture at 10 μM concentration. SRI (at 10 μM) served as a positive control compound, while DMSO alone without any compound served as a negative control. At the end of the culture on Day 35, cell expansion, natural killer (NK) cell differentiation and cytotoxicity of the cells against K562 tumor cell line were characterized. Due to the large number of the compounds, the testing was performed in two experiments, CRL1-11 and CRL 12-22. The same donors were used for each experiment. Positive and negative controls were also included in both experiments.

K562 tumor cells = test: Cytotoxicity assay of compound cultured cells against K562 tumor cells; type: cell-based; conditions: K562, 10:1 effector to target ratio
Procedure: as §1
Cytotoxicity assay was run using compound cultured cells against K562 tumor cells at 10:1 effector to target ratio (FIG. 5) to evaluate cell functions.

SMILES	supported NK (PNK-007) expansion and differentiation (CD34+ cells)	CD56+/CD11a+ subpopulation compared to SRI (CD34+ cells)	cell expansion compared to SRI positive control at Day 35 (CD34+ cells)	killing activities of cultured cells compared to those cultured with SRI (K562 tumor cells)	expansion, differentiation and cytotoxicity profiles compared to SRI (CD34+ cells)	CD34 cell expansion at Day 14 of the culture (CD34+ cells)
CCC(C)Nc1cc(-c2cncc(C#N)c2)nc(NCCc2c[nH]c3ccccc23)n1 (centres unmarked) [CRL7, 5-(2-((2-(1H-indol-3-yl)ethyl)amino)-6-(sec-butylamino)pyrimidin-4-yl)nicotinonitrile]	all the compounds except CRL7 and CRL13 supported PNK-007 expansion and differentiation	–	–	–	–	–
CCC(C)Nc1nc(NCCc2c[nH]c3ccccc23)c2ccccc2n1 (centres unmarked) [CRL13, N^4-(2-(1H-indol-3-yl)ethyl)-N^2-(sec-butyl)quinazoline-1,4-diamine]	all the compounds except CRL7 and CRL13 supported PNK-007 expansion and differentiation	–	–	–	–	–
CC(C)c1csc2c(NCCc3c[nH]c4ccccc34)nc(-c3cncc(C#N)c3)nc12 [CRL17, 5-(4-((2-(1H-indol-3-yl)ethyl)amino)-7-isopropylthieno[3,2-d]pyrimidin-2-yl)nicotinonitrile]	–	increased CD56+/CD11a+ subpopulation	slightly less expansion compared to SRI	increased killing activities of the cells	–	–
CC(C)c1csc2c(NCCc3c[nH]c4ccccc34)nc(-c3cncc(F)c3)nc12 [CRL18, N-(2-(1H-indol-3-yl)ethyl)-2-(5-fluoropyridin-3-yl)-7-isopropylthieno[3,2-d]pyrimidin-4-amine]	–	increased CD56+/CD11a+ subpopulation	slightly less expansion compared to SRI	increased killing activities of the cells	–	–
Fc1cncc(-c2nc(NCCc3c[nH]c4ccccc34)c3occc3n2)c1 [CRL19, N-(2-(1H-indol-3-yl)ethyl)-2-(5-fluoropyridin-3-yl)furo[3,2-d]pyrimidin-4-amine]	–	–	–	–	very similar expansion, differentiation and cytotoxicity profiles as SRI	highest CD34 cell expansion
Cc1cncc(-c2nc(NCCc3c[nH]c4ccccc34)c3occc3n2)c1 [CRL20, N-(2-(1H-indol-3-yl)ethyl)-2-(5-methylpyridin-3-yl)furo[3,2d]pyrimidin-4-amine]	–	–	–	–	very similar expansion, differentiation and cytotoxicity profiles as SRI	highest CD34 cell expansion
Cc1cncc(-c2nc(NCCc3c[nH]c4ccccc34)c3scc(C(C)C)c3n2)c1 [CRL21, N-(2-(1H-indol-3-yl)ethyl)-7-isopropyl-2-(5-methylpyridin-3-yl)thieno[3,2-d]pyrimidin-4-amine]	–	increased CD56+/CD11a+ subpopulation	slightly less expansion compared to SRI	increased killing activities of the cells	–	–
N#Cc1cncc(-c2nc(NCCc3c[nH]c4ccccc34)c3occc3n2)c1 [CRL22, 5-(4-((2-(1H-indol-3-yl)ethyl)amino)furo[3,2-d]pyrimidin-2-yl)nicotinonitrile]	–	–	–	–	very similar expansion, differentiation and cytotoxicity profiles as SRI	highest CD34 cell expansion
